# Reference: patent publication US10011573B2, “Human androgen receptor DNA-binding domain (DBD) compounds as therapeutics and methods for their use” (The University of British Columbia, priority 2014, dated 2018)
# Substitutions are numbered along the chain they refer to. Read-outs that look alike come from different tables or passages of the source.
# Assays:
# AR target genes = test: Microarray genetic profile in LNCaP cells; conditions: 1 nM R1881, 24 h
# [1] = target: T1, AR hormone binding site (recombinant wild type LBD) (Rattus norvegicus, UniProt P15207); test: Androgen displacement assay (Polar Screen Androgen Receptor Competitor Green Assay Kit); conditions: fluorescence polarization
# T1 construct: displace DHT from the ABS site of recombinant wild type LBD
# T1 sequence (P15207 651-882 limits assumed): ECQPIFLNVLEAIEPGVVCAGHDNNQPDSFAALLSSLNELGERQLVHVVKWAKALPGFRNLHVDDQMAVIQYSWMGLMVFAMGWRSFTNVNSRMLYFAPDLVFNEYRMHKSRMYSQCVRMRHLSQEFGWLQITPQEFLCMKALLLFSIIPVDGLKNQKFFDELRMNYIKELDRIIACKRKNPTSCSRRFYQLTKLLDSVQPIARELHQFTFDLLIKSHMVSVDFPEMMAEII
# Procedure: 5. Androgen displacement assay: The androgen displacement was assessed with the Polar Screen Androgen Receptor Competitor Green Assay Kit as per the instructions of the manufacturer (Lack, Axerio-Cilies et al. 2011).
# The ability of the above chemicals to displace DHT from the ABS site of recombinant wild type LBD was measured using a fluorescent polarization assay (PolarScreen™, Life Technologies) at various concentrations.
# androgen receptor (AR) = target: T2, androgen receptor (AR) (Homo sapiens, UniProt P10275, T878A); test: eGFP cellular AR transcription assay (LNCaP eGFP cells, LN-ARR2PB-eGFP); conditions: for anti-AR activity (AR transcriptional inhibition) in words: LNCaP (T877A AR); for inhibition at 3 µM: LNCaP, read-out: % Inhibition (3 μM)
# T2 sequence (P10275 1-920 T878A): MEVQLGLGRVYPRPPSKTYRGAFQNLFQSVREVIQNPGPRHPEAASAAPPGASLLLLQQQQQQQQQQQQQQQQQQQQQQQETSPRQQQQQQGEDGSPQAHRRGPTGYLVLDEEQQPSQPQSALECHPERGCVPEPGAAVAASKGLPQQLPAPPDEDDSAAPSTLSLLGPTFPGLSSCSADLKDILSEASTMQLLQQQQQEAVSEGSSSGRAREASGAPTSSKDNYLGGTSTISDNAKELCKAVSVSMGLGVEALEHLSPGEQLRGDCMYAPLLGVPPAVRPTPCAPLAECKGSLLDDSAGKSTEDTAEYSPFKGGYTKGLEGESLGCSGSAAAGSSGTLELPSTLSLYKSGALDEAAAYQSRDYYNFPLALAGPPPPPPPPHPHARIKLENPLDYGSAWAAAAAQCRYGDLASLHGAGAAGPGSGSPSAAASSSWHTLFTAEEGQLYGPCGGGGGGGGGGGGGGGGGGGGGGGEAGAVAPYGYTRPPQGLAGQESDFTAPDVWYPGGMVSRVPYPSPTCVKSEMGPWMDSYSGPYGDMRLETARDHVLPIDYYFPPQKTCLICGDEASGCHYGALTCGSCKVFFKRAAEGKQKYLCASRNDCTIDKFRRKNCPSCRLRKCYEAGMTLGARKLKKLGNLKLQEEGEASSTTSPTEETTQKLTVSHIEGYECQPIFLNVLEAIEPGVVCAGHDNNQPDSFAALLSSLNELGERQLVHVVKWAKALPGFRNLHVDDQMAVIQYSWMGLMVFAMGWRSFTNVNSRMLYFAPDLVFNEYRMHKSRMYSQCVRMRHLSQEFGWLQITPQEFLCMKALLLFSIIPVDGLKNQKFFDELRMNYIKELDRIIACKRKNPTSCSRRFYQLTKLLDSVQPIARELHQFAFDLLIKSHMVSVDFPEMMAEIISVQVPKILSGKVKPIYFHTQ
# PSA = test: Prostate-specific antigen (PSA) assay, secreted PSA from the eGFP assay plates; assay type: cell-based, human
# Procedure: 3. Prostate-specific antigen (PSA) assay: The evaluation of PSA levels secreted into the media was performed in parallel to the eGFP assay using the same plates. After cells were incubated for 3 days, 150 μl of the media was taken from each well, and added to 150 μl of PBS.
# full-length human AR = target: T3, full-length human AR (Homo sapiens, UniProt P10275); test: ARR3tk-luciferase reporter assay in PC3 cells, wild-type AR; assay type: cell-based
# T3 construct: expressed in transfected cells; host or cells: PC3 (AR-negative human prostate cancer cells)
# T3 sequence (P10275 1-920): T2 sequence (P10275 1-920 T878A) with A878T
# Procedure: (§1) 9. Transient Transfection: The PC3/MCF7 cells were seeded into a 96-well plate (2,000 cells/well). After 24 hrs, the wild-type AR (50 ng/well)/AR mutants and AR3TK-luciferase plasmids (1:3) were co-transfected into PC3 cells or ERE-luciferase (50 ng/well) was transfected into MCF7 cells using transfection reagent TT20. 24 hrs after the transfection, the cells were treated with the compounds at various concentrations. And 24 hrs later, the cells were lysed and the reading was taken using a luminometer.
# T877A-AR mutant = target: T4, T877A-AR mutant (Homo sapiens, UniProt P10275, T878A); test: Luciferase reporter assay in PC3 cells, T877A-AR; assay type: cell-based; conditions: presence and absence of R1881
# T4 construct: expressed in transfected cells; host or cells: PC3
# Procedure: as §1
# endogenous wild type AR = test: ARR3tk-luciferase assay in R1-AD1 cells; assay type: cell-based, human; conditions: 0.1 nM R1881
# AR DBD = AR DBD (Homo sapiens, UniProt P10275)
# [2] = eGFP IC50, LNCaP eGFP cells, 0.1 nM R1881
# [3] = eGFP IC50 (μM), LNCaP eGFP cells
smiles,measurement,setting,value
"C[C@]1(O)CC[C@H]2[C@@H]3CCC4=CC(=O)CCC4=C3C=C[C@@]21C [Compound R1881, R1881, reference compound]","FKBP5 gene expression fold change, DMSO+R1881 against DMSO-R1881",AR target genes,1.61
same,"KLK2 gene expression fold change, DMSO+R1881 against DMSO-R1881",AR target genes,3.60
same,"KLK3 (PSA) gene expression fold change, DMSO+R1881 against DMSO-R1881",AR target genes,2.42
same,"TMPRSS2 gene expression fold change, DMSO+R1881 against DMSO-R1881",AR target genes,2.25
c1ccc(-c2csc(N3CCOCC3)n2)nc1 [Compound 14436],Androgen Displacement IC50,[1],No displacement
same,anti-AR activity (AR transcriptional inhibition) in words,androgen receptor (AR),maintained good potency
same,partial agonistic effect,androgen receptor (AR); LNCaP eGFP cells,no undesired partial agonistic effect
same,IC50,"androgen receptor (AR); eGFP IC50 (μM), Series 1",2.51 µM
same,IC50,androgen receptor (AR); [2],4.53 ± 0.26 µM
c1ccc(-c2csc(-c3ccccn3)n2)cc1 [Compound 14130],IC50,PSA; Series 1,8540 nM
same,IC50,androgen receptor (AR); read-out: eGFP IC50,7.4 µM
c1ccc2c(-c3csc(-c4c[nH]c5ccccc45)n3)c[nH]c2c1 [Compound 14471],IC50,"PSA; Homo sapiens, Series 1",1410 nM
same,IC50,"androgen receptor (AR); eGFP IC50 (μM), Series 1",1.02 µM
c1cc(-c2csc(N3CCCCC3)n2)cs1 [Compound 14131],IC50,"PSA; Homo sapiens, Series 1",540 nM
same,inhibition at 3 µM,androgen receptor (AR),117%
same,IC50,"androgen receptor (AR); eGFP IC50 (μM), Series 1",0.82 µM
O=[N+]([O-])c1cccc2ccc(N3CCOCC3)nc12 [Compound 14398],IC50,"PSA; Homo sapiens, secreted PSA",850 nM
same,IC50,androgen receptor (AR); [3],0.82 µM
CCOC(=O)c1c(C)[nH]c(C(=O)N[C@@H]2CCCc3ccccc32)c1C [Compound 14002],IC50,"PSA; Homo sapiens, secreted PSA",3540 nM
same,IC50,androgen receptor (AR); [3],11.8 µM
c1cc(-c2csc(N3CCOCC3)n2)ccn1 [Compound 14435],Androgen Displacement IC50,[1],No displacement
same,anti-AR activity (AR transcriptional inhibition) in words,androgen receptor (AR),maintained good potency
same,partial agonistic effect,androgen receptor (AR); LNCaP eGFP cells,no undesired partial agonistic effect
same,IC50,"androgen receptor (AR); eGFP IC50 (μM), Series 1",2.61 µM
same,IC50,androgen receptor (AR); [2],3.87 ± 1.26 µM
Oc1cccc(-c2ccc3ccccc3n2)c1 [Compound 14300],IC50,"PSA; Homo sapiens, secreted PSA",1040 nM
same,IC50,androgen receptor (AR); [3],0.23 µM
COc1ccccc1-c1csc(N2CCOCC2)n1 [Compound 14257],IC50,"PSA; Homo sapiens, Series 1",830 nM
same,inhibition at 3 µM,androgen receptor (AR),118%
same,IC50,"androgen receptor (AR); eGFP IC50 (μM), Series 1",0.22 µM
c1ccc2cc(-c3cscn3)ccc2c1 [Compound 14193],IC50,"PSA; Homo sapiens, secreted PSA",640 nM
same,IC50,androgen receptor (AR); [3],1.3 µM
Clc1ccc(-c2csc(N3CCOCC3)n2)cc1Cl [Compound 14266],IC50,PSA; Series 1,2960 nM
same,% Inhibition (3 μM),androgen receptor (AR),82.19%
same,IC50,androgen receptor (AR); read-out: eGFP IC50,3.31 µM
COc1c(F)cccc1-c1csc(N2CCOCC2)n1 [Compound 14368],IC50,"PSA; Homo sapiens, Series 1",130 nM
same,IC50,[1],31300 nM
same,"AR transcription, wild type AR, presence of R1881",full-length human AR,inhibited by 14368 in a dose response manner
same,"AR transcriptional activity, wild type AR, absence of androgen",full-length human AR,only a basal level of transcriptional activity
same,concentration inducing transcriptional activation of T877A AR mutant,T877A-AR mutant,higher than 0.4 μM
same,agonistic effect at high concentrations,endogenous wild type AR,not observed
same,AR transcriptional activity in the absence of R1881,androgen receptor (AR); LNCaP eGFP cells without R1881,vigorously enhance AR transcriptional activity
same,IC50,"androgen receptor (AR); eGFP IC50 (μM), Series 1",0.03 µM
same,IC50,androgen receptor (AR); [2],0.035 µM
"Cc1scc(-c2csc(N3CCOCC3)n2)c1C [Compound 14408, 4-(4-(4,5-dimethylthiophen-3-yl)thiazol-2-yl)morpholine]",IC50,"PSA; Homo sapiens, Series 1",430 nM
same,IC50,"androgen receptor (AR); eGFP IC50 (μM), Series 1",0.42 µM
FC(F)(F)c1cccc(-c2csc(N3CCOCC3)n2)c1 [Compound 14292],IC50,"PSA; Homo sapiens, Series 1",580 nM
same,IC50,"androgen receptor (AR); eGFP IC50 (μM), Series 1",0.61 µM
O=C(O)c1sc(N2CCOCC2)nc1-c1ccccc1 [Compound 14506],IC50,PSA; Series 1,4500 nM
same,IC50,androgen receptor (AR); read-out: eGFP IC50,7 µM
c1cncc(-c2csc(N3CCOCC3)n2)c1 [Compound 14439],Androgen Displacement IC50,[1],low displacement
same,anti-AR activity (AR transcriptional inhibition) in words,androgen receptor (AR),maintained good potency
same,partial agonistic effect,androgen receptor (AR); LNCaP eGFP cells,no undesired partial agonistic effect
same,inhibition at 3 µM,androgen receptor (AR),81%
same,IC50,androgen receptor (AR); [2],0.16 ± 0.03 µM
COc1c(Cl)cc(-c2csc(N3CCOCC3)n2)cc1Cl [Compound 14288],digestion of AR DBD by trypsin in presence of compound,AR DBD,not digested
same,% Inhibition (3 μM),androgen receptor (AR),35.89%
"c1cc(-c2csc(N3CCOCC3)n2)cs1 [Compound 14404, 4-(4-(thiophen-3-yl)thiazol-2-yl)morpholine]",IC50,"PSA; Homo sapiens, Series 1",220 nM
same,Androgen Displacement IC50,[1],No displacement
same,anti-AR activity (AR transcriptional inhibition) in words,androgen receptor (AR),maintained good potency
same,partial agonistic effect,androgen receptor (AR); LNCaP eGFP cells,no undesired partial agonistic effect
same,IC50,"androgen receptor (AR); eGFP IC50 (μM), Series 1",0.26 µM
same,IC50,androgen receptor (AR); [2],0.27 ± 0.02 µM
c1cncc(-c2csc(-c3c[nH]c4ccccc34)n2)c1 [Compound 14442],IC50,"PSA; Homo sapiens, Series 1",3050 nM
same,inhibition at 3 µM,androgen receptor (AR),86.3%
same,IC50,"androgen receptor (AR); eGFP IC50 (μM), Series 1",5.39 µM
"Clc1cn(-c2csc(N3CCOCC3)n2)cn1 [Compound 14448, 4-(4-(4-chloro-1H-imidazol-1-yl)thiazol-2-yl)morpholine]",IC50,"PSA; Homo sapiens, Series 1",720 nM
same,IC50,"androgen receptor (AR); eGFP IC50 (μM), Series 1",0.96 µM
Brc1ccc2nc(N3CCOCC3)ccc2c1 [Compound 14452],IC50,"PSA; Homo sapiens, secreted PSA",170 nM
same,IC50,androgen receptor (AR); [3],0.11 µM
"Clc1ncn(-c2csc(N3CCOCC3)n2)c1Cl [Compound 14402, 4-(4-(4,5-dichloro-1H-imidazol-1-yl)thiazol-2-yl)morpholine]",IC50,"PSA; Homo sapiens, Series 1",570 nM
same,IC50,"androgen receptor (AR); eGFP IC50 (μM), Series 1",0.66 µM
Oc1c(F)cccc1-c1csc(N2CCOCC2)n1 [Compound 14365],IC50,"PSA; Homo sapiens, Series 1",160 nM
same,inhibition at 3 µM,androgen receptor (AR),97.4%
same,IC50,"androgen receptor (AR); eGFP IC50 (μM), Series 1",0.27 µM
N#Cc1ccc(-c2ccc(N3CCOCC3)s2)cc1 [Compound 14117],IC50,"PSA; Homo sapiens, Series 1",885 nM
same,inhibition at 3 µM,androgen receptor (AR),111%
same,IC50,"androgen receptor (AR); eGFP IC50 (μM), Series 1",1.43 µM
